Results: patent US20260234150A1, “COMPOUND FOR INHIBITING NLRP3, PREPARATION METHOD, AND USE” (DOVETREE MEDICINES UNUS, INC., priority 2023, published 2026)
pIC50: −log10 of the molar value.

Tests used:
hERG ion channel = biological target: T1, hERG ion channel (Homo sapiens, UniProt Q12809); test: hERG ion channel inhibition, manual patch clamp in HEK293 cells; type: cell-based; details: HEK293 cells stably expressing hERG, read-out: hERG(IC50, manupatch)
T1 construct: host or cells: HEK293
Protocol: This experiment used manual patch clamp electrophysiology to detect the inhibitory effect of compounds on hERG ion channels, and evaluated cardiac safety based on the single concentration inhibition rate or IC50 size of the compounds.
The cells used in this experiment are HEK293 cell lines transfected with hERG cDNA and stably expressing hERG channels (#60187, provided by BPS, P3-P23 generations are used for experimental research). Cells were cultured in a medium containing the following components: MEM medium, 10% (v/v) inactivated fetal bovine serum, 1 mM sodium pyruvate, […] geneticin, 0.1 mM non-essential amino acids, and 100 U penicillin-streptomycin. HEK293 hERG cells were grown in culture flasks containing the above culture medium and cultured in an incubator at 37° C. and 5% CO2. […]
The electrophysiological experiments were performed by a manual patch clamp system (HEKAEPC-10 signal amplifier and digital conversion system, purchased from HEKA Electronics, Germany) to record the whole-cell current. […] After the hERG current recorded in the above steps reaches stability under continuous perfusion of extracellular fluid in the recording tank, different concentrations of the test compound can be perfused until the inhibitory effect of the drug on the hERG current reaches a stable state. […]

[1] = tested on: iodoacetic acid (MIA)-induced SD rat knee osteoarthritis model; test: Iodoacetic acid (MIA)-induced SD rat knee osteoarthritis model; type: in vivo, SD rats; details: 30 mg/kg orally once a day from Day 7 to Day 42; compared with model blank control group; 21 days to 42 days after modeling
Protocol: Purpose: Evaluate the efficacy of MCC950 (Positive reference compound) and compound 111 of the present disclosure on iodoacetic acid (MIA)-induced SD rat knee osteoarthritis model.
Experimental materials: Experimental male SD rats, 4 weeks old.
Model induction began after the experimental animals were adapted to the animal environment for 7 days. Day 0, the rats were anesthetized, the hair around the left knee joint was removed, and the skin was disinfected. The left leg was flexed 90° to expose the patellar platform. The depression in the middle of the platform was touched by hand to find the femoral condyle, patella and ligament. The syringe needle was inserted from the bottom of the patella on both sides of the patellar ligament to the direction of the femoral condyle. When a clear sense of empty space was felt, 50 μL of iodoacetic acid solution was injected. Day 7 Grouping was performed according to the width of the knee joint on the induced side. The groups were: normal control group (healthy control without modeling, 5% DMSO+10% Solutol+85% Saline), model blank control group (5% DMSO+10% Solutol+85% Saline), MCC950 30 mg/kg, and compound 111 of the present disclosure 30 mg/kg. Starting from Day 7, the normal control group and the model blank control group were given the solvent (5% DMSO+10% Solutol+85% Saline) orally once a day, and the other groups were given the corresponding compounds orally once a day until the end of the administration on Day 42. The knee joint width and body weight of the rats were measured once on Day 7, 14, 21, 28, 35, and 42.

T1 sequence (Q12809 whole entry): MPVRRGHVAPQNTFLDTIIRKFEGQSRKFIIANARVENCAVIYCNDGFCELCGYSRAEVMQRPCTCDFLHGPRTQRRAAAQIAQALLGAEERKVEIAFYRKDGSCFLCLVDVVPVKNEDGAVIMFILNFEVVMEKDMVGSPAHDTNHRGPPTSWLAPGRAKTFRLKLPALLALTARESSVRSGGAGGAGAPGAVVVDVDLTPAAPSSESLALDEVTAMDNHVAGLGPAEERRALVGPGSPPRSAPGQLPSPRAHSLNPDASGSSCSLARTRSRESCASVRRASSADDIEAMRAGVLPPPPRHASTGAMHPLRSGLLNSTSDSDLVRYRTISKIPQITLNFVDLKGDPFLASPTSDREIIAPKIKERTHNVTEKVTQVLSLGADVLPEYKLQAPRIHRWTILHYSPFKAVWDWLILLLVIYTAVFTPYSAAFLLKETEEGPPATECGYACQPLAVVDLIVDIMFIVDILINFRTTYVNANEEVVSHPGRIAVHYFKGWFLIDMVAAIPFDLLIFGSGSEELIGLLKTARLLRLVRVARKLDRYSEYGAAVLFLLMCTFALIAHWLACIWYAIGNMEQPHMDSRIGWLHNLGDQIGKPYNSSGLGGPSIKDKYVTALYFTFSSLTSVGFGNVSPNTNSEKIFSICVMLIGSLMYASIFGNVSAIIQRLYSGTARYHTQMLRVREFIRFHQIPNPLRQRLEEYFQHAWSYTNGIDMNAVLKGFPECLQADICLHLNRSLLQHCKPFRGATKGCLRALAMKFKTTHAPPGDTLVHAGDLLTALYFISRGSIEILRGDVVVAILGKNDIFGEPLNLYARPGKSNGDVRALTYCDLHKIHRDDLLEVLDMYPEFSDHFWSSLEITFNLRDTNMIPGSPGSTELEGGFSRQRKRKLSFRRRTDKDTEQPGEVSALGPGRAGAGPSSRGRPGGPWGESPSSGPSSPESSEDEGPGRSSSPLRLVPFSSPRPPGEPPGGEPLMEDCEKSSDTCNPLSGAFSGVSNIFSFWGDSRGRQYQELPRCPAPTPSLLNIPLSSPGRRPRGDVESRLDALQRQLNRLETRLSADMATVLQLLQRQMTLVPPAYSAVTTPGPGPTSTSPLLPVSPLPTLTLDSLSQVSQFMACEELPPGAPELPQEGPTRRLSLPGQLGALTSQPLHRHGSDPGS

Q: What does the source list for `CC(=O)N1CCOC[C@H]1CNc1nc2nc(-c3c(C)cc(C(F)(F)F)cc3O)ccc2o1` [Compound 111]?
A: pIC50 (hERG ion channel): < 4.52; widening of the knee joints (knee joint width) [1]: could significantly inhibit the widening of the knee joints
